Laboratory results as given in PMC5760710, “The evolution of substrate discrimination in macrolide antibiotic resistance enzymes” (Nature Communications, 2018).
≈ marks a conversion by molar mass, not a printed value.

Assays:
[1] = tested on: T1, E. coli BW25113 ΔbamBΔtolC (vector); assay: microbe, parasite or virus in culture; parameters: CLSI broth microdilution MIC in Mueller-Hinton broth; conditions: Escherichia coli, BW25113, 24 h
T1 construct: BW25113 ΔbamBΔtolC, empty vector
Procedure: (§1) mphB was codon optimized, synthetized as a gBlock (IDT) and cloned into pET28a with an N-terminal histidine tag. The codon optimized mphB sequence is in Supplementary Table 17. mphI was previously cloned into pET22b[36]. pGDP4 is a derivative of pET28a with the multiple-cloning site under the control of the constitutive lac promoter. mphI was subcloned into pGDP4 using the XbaI and XhoI restriction sites. E. coli was routinely cultured on LB-Lennox (Bioshop) at 37 °C overnight, and either 100 µg mL^−1 ampicillin or 50 µg mL^−1 kanamycin was used for plasmid selection. E. coli TOP10 (Invitrogen) was used for routine cloning experiments and susceptibility testing of mphs cloned into pGDP4. E. coli BL21(DE3) (Stratagene, USA)was used for protein overexpression experiments. E. coli BW25113 ΔbamBΔtolC is an antibiotic hypersensitive, and was used for susceptibility testing of Mphs cloning into pGDP4. Antibiotic susceptibility testing was performed according to the Clinical and Laboratory Standards Institute guidelines[74] for determining minimal inhibitory concentration (MIC) in 96-well plates (Sarstedt, Germany) in duplicate. MIC values were reproducible. A saline suspension of OD600 of 0.1 was made from 2–3 colonies of a fresh overnight, and diluted 1:200 into Mueller-Hinton Broth (BD Biosciences). […] Susceptibility assays were performed at least two independent times.

[2] = target: T2, MphB (Escherichia coli, UniProt A0A0H3EUF3); assay: biochemical; parameters: PK/LDH-coupled continuous assay of macrolide phosphorylation; steady-state kinetics, NADH absorbance; conditions: substrate inhibition
T2 construct: codon-optimized gene, N-terminal His tag in pET28a, expressed in E. coli BL21(DE3), Ni-NTA purified
Procedure: (§2) Steady-state kinetics for Mphs were measured using the continuous PK/LDH-coupled assay[27],[32],[36],[71]. Reactions were performed in 96-well plates (Nunc, Thermo Scientific) using Spectramax Plus384 (Molecular Devices) in duplicate. Individual reactions were 100 µL and contained 50 mM HEPES pH 7.5, 40 mM KCl, 10 mM MgCl2, 0.2 mM NADH, 3.5 mM PEP, and 4.8 U PK/LDH (pyruvate kinase/lactate dehydrogenase). […] For determining the Km for macrolides, GTP was maintained at 200 µM and macrolides were varied between 0.49 µM and 1000 µM. Enzyme efficiency varied considerably between substrates, and therefore some enzymes were used at different concentrations depending on the substrate in order to produce a linear range suitable for Km determination. These concentrations were as follows; MphB 140 nM (most substrates), MphB 36 nM (josamycin), MphI 45 nM (descladinose macrolides), MphI 1.44 µM (C3 cladinose macrolides), Azi_1.1 90 nM (all substrates), Ery_1 (all substrates), MphK 680 nM (all substrates), MphIS111R/T166E/P211L 90 nM (descladinose macrolides), MphIS111R/T166E/P211L 1.43 µM (C3 cladinose macrolides), MphIM40A/S111R/T166E 22 nM (descladinose macrolides), MphIM40A/S111R/T166E 430 nM (C3 cladinose macrolides), MphIS111R/T166E 22 nM (descladinose macrolides), MphIS111R/T166E 1.43 µM (C3 cladinose macrolides). Enzyme kinetics experiments were performed at least two independent times. Steady-state kinetics of Mphs

[3] = tested on: T3, E. coli BW25113 ΔbamBΔtolC; assay: microbe, parasite or virus in culture; conditions: Escherichia coli, BW25113, 24 h; empty vector
T3 construct: BW25113 ΔbamBΔtolC empty vector pGDP4
Procedure: as §1

[4] = target: T4, MphK (Bacillus subtilis, UniProt P42242); parameters: PK/LDH-coupled continuous assay of macrolide phosphorylation; steady-state kinetics, NADH absorbance; conditions: substrate inhibition
T4 construct: full-length, His-tagged, expressed in E. coli BL21(DE3), Ni-NTA purified
Procedure: as §2, with “Steady-state kinetics of Mphs” left out

T4 sequence (P42242 whole entry): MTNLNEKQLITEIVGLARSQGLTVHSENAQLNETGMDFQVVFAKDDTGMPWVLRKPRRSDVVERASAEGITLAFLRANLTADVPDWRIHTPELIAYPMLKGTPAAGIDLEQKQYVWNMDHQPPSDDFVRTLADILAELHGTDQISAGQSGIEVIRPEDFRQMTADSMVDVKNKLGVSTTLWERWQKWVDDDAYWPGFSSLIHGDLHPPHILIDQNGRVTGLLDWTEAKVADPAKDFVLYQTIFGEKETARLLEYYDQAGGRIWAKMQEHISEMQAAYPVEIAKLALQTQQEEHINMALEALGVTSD

| SMILES | MIC [1] | Ki [2] | MIC [3] | Ki [4] |
| --- | --- | --- | --- | --- |
| CO[C@@H]1[C@@H](O[C@@H]2O[C@H](C)[C@@H](O[C@H]3C[C@@](C)(O)[C@@H](OC(=O)CC(C)C)[C@H](C)O3)[C@H](N(C)C)[C@H]2O)[C@@H](CC=O)C[C@@H](C)[C@@H](O)/C=C/C=C/C[C@@H](C)OC(=O)C[C@H]1OC(C)=O [josamycin] | 2 to 4 µg/mL (≈ 2.42 to 4.83 µM) |  |  |  |
| CO[C@@H]1[C@@H](O[C@@H]2O[C@H](C)[C@@H](O[C@H]3C[C@@](C)(O)[C@@H](O)[C@H](C)O3)[C@H](N(C)C)[C@H]2O)[C@@H](CC=O)C[C@@H](C)[C@@H](O[C@H]2CC[C@H](N(C)C)[C@@H](C)O2)/C=C/C=C/C[C@@H](C)OC(=O)C[C@H]1O [Spiramycin] |  | 39 ± 16 µM | 2 µg/mL (≈ 2.37 µM) | 750 ± 160 µM |
